According to paper PMC9737644, “Facile Synthesis of Some Coumarin Derivatives and Their Cytotoxicity through VEGFR2 and Topoisomerase II Inhibition” (Molecules, 2022):
Counter-ions that a name gives are not always drawn. Like-named read-outs stand apart in the source and are kept apart here.

Columns and labels:
[1] = system: MCF-7 cells; assay: Cytotoxicity using MTT assay, MCF-7; assay type: cell-based; details: for IC50: Homo sapiens, MCF7, 48 h, 48 h, read-out: IC50 cytotoxicity against MCF-7; for cell death: MCF-7 cells
Experimental: (§1) Breast cancer (MCF-7) and liver cancer (HepG2) cell lines were collected from National Cancer Institute in Cairo and grown in “RPMI-1640 medium L-Glutamine. The cells were grown in 10% fetal bovine serum (FBS) and 1% penicillin-streptomycin using standard tissue culture protocol. On the second day, cells were grown in triplicate on a 96-well plate at a density of 5 × 10^4 cells and incubated with the investigated compounds at “0.01, 0.1, 1, 10, and 100 µM”. Cell viabilioty was measured with MTT solution. The absorbance was measured using an ELISA microplate reader. After comparing the treated groups to the control, the IC50 values were recorded to indicate the level of viability following previous work.

[2] = system: HepG2 cells; assay: Cytotoxicity using MTT assay, HepG2; assay type: cell-based; details: read-out: IC50 cytotoxicity against HepG2
Experimental: as §1

[3] = target: Topoisomerase II (Homo sapiens, UniProt P11388); assay: Topoisomerase II screening kit
Chain of Topoisomerase II (P11388 whole entry): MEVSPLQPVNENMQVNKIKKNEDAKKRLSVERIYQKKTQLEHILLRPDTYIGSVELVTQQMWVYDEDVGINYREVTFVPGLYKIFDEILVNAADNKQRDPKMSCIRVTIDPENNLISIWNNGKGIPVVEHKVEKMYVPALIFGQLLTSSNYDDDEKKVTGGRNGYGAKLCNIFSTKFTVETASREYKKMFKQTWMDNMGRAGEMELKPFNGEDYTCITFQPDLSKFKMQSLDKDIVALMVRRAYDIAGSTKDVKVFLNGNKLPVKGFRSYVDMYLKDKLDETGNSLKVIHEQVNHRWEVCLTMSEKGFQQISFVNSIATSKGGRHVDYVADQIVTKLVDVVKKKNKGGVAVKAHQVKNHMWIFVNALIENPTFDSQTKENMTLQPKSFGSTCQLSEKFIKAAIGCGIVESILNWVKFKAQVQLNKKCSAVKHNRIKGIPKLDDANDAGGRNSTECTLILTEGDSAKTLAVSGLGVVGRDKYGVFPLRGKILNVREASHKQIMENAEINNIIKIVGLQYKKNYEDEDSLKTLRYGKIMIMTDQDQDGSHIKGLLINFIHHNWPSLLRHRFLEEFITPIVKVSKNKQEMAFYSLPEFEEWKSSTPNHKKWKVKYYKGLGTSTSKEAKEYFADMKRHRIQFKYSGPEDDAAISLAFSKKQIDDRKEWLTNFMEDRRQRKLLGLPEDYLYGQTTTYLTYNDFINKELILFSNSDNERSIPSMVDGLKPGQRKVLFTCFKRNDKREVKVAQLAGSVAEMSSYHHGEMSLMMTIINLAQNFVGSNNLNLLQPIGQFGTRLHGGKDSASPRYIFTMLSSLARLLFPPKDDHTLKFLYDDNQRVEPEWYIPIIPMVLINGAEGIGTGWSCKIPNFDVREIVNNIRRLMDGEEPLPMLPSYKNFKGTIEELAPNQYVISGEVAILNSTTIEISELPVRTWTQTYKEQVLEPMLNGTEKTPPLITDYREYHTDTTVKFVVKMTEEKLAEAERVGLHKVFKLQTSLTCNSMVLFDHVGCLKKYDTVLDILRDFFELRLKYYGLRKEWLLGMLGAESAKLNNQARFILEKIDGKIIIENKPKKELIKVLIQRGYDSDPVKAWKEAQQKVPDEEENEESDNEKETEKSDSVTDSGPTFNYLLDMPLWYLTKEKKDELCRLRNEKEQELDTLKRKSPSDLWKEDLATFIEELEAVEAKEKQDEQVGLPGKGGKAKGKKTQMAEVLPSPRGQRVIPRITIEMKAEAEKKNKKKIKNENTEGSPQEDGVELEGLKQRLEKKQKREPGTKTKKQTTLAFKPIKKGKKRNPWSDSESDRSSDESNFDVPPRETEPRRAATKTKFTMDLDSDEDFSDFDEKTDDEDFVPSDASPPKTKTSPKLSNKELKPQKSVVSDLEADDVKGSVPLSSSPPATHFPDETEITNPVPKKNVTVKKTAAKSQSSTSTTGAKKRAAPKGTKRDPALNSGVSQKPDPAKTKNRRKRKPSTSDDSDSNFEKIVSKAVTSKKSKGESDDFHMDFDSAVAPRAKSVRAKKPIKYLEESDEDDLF

[4] = target: VEGFR2 (KDR) (Homo sapiens, UniProt P35968); assay: biochemical
Chain of VEGFR2 (KDR) (P35968 20-1356): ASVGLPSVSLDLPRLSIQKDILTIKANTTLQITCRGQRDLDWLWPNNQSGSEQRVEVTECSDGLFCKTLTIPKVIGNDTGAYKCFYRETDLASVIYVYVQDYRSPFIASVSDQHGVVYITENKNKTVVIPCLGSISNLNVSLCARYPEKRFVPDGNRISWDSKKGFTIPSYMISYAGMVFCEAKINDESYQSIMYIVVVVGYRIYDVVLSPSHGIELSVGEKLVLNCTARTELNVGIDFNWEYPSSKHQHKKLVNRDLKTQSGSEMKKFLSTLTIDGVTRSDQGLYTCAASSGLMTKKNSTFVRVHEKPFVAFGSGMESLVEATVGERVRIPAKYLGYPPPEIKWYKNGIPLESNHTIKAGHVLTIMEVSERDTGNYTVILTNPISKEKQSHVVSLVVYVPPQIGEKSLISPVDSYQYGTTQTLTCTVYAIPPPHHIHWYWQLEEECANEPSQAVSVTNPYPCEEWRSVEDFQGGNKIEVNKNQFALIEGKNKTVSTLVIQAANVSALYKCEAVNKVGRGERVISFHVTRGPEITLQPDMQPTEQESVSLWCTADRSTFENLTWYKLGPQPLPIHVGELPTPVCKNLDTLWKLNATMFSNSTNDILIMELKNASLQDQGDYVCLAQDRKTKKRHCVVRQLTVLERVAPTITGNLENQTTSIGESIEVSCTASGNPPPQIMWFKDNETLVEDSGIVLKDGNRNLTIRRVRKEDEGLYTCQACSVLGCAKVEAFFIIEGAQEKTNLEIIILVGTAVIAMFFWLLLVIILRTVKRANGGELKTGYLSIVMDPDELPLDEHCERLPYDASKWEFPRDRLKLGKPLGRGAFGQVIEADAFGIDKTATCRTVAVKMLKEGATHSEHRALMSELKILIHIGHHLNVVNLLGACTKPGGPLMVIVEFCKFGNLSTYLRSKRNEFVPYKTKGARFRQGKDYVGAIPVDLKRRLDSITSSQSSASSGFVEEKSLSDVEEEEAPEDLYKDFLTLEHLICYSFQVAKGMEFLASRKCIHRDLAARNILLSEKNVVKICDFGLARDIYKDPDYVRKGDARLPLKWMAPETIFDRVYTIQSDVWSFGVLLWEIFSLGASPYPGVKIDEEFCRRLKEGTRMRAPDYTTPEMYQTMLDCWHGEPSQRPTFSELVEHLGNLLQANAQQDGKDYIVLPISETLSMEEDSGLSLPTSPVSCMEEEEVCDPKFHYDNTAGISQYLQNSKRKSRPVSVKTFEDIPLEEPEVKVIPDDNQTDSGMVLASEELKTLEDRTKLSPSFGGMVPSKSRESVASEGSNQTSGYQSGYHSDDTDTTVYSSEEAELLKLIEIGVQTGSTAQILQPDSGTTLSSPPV

Row | melting point [°C] | SMILES | further results
1 | 195 to 197 | O=C(O)CCNC(=O)c1cc2ccccc2oc1=O [5c, 3-[(2-Oxo-2H-chromene-3-carbonyl)-amino]-propanoic acid] | 
2 | 210 to 212 | CC(C)C(NC(=O)c1cc2ccccc2oc1=O)C(=O)O (stereo not shown) [5e, 3-Methyl-2-[(2-oxo-2H-chromene-3-carbonyl)-amino] butanoic acid] | 
3 | 108 to 109 | CSCCC(NC(=O)c1cc2ccccc2oc1=O)C(=O)O (stereo not shown) [5i, 4-Methylsulfanyl-2-[(2-oxo-2H-chromene-3-carbonyl)-amino]-butanoic acid] | 
4 | 127 to 128 | COC(=O)CCNC(=O)CCNC(=O)c1cc2ccccc2oc1=O [6a, Methyl 3-{3-[(2-oxo-2H-chromene-3-carbonyl)-amino]-propionylamino} propanoate] | 
5 | 101 to 103 | COC(=O)C(NC(=O)CCNC(=O)c1cc2ccccc2oc1=O)C(C)C (stereo not shown) [6b, Methyl 3-Methyl-2-{3-[(2-oxo-2H-chromene-3-carbonyl)-amino]-propionyl-amino}-butanoate] | 
6 | 149 to 151 | COC(=O)CCNC(=O)C(NC(=O)c1cc2ccccc2oc1=O)C(C)C (stereo not shown) [7a, Methyl 3-{3-methyl-2-[(2-oxo-2H-chromene-3-carbonyl)-amino]-butyryl-amino}-propanoate] | 
7 | 97 to 99 | COC(=O)C(NC(=O)C(NC(=O)c1cc2ccccc2oc1=O)C(C)C)C(C)C (stereo not shown) [7b, Methyl 3-Methyl-2-{3-methyl-2-[(2-oxo-2H-chromene-3-carbonyl)-amino]-butyrylamino}-butanoate] | 
8 | 100 to 101 | COC(=O)[C@H](CCSC)NC(=O)[C@@H](NC(=O)c1cc2ccccc2oc1=O)C(C)C [7c, Methyl 2-{3-methyl-2-[(2-oxo-2H-chromene-3-carbonyl)-amino]-butyrylamino} -4-methylsulfanyl butanoate] | 
9 | 104 to 105 | COC(=O)CCNC(=O)C(CCSC)NC(=O)c1cc2ccccc2oc1=O (stereo not shown) [8a, Methyl 3-{4-methylsulfanyl-2-[(2-oxo-2H-chromene-3-carbonyl)-amino]-butyrylamino}-propanoate] | 
10 | 98 to 99 | COC(=O)C(NC(=O)C(CCSC)NC(=O)c1cc2ccccc2oc1=O)C(C)C (stereo not shown) [8b, Methyl 3-methyl-2-{4-methylsulfanyl-2-[(2-oxo-2H-chromene-3-carbonyl)-amino]-butyrylamino}-butanoate] | 
11 | 109 to 111 | COC(=O)C(CCSC)NC(=O)C(CCSC)NC(=O)c1cc2ccccc2oc1=O (stereo not shown) [8c, Methyl 4-methylsulfanyl-2-{4-methylsulfanyl-2-[(2-oxo-2H-chromene-3-carbonyl)-amino]-butyrylamino}-butanoate] | 

The next lines start with the molecule.

Row | SMILES | melting point [°C] | further results
12 | COC(=O)CNC(=O)c1cc2ccccc2oc1=O (as salt: hydrochloride) [4a, Methyl [(2-oxo-2H-chromene-3-carbonyl)-amino] ethanoate] | 173 to 175 | 
13 | COC(=O)C[C@H](NC(=O)c1cc2ccccc2oc1=O)C(=O)OC (as salt: succinate) [4g, Dimethyl 2-[(2-oxo-2H-chromene-3-carbonyl)-amino] succinate] | 69 to 71 | 
14 | COC(=O)[C@H](C)NC(=O)c1cc2ccccc2oc1=O [4b, Methyl 2-[(2-oxo-2H-chromene-3-carbonyl)-amino] propanoate] | 104 to 106 | 
15 | COC(=O)CCNC(=O)c1cc2ccccc2oc1=O [4c, Methyl 3-[(2-oxo-2H-chromene-3-carbonyl)-amino] propanoate] | 135 to 137 | 
16 | COC(=O)C(CO)NC(=O)c1cc2ccccc2oc1=O (stereo not shown) [4d, Methyl 3-hydroxy-2-[(2-oxo-2H-chromene-3-carbonyl)-amino]-propanoate] | 177 to 179 | 
17 | COC(=O)C(NC(=O)c1cc2ccccc2oc1=O)C(C)C (stereo not shown) [4e, Methyl 3-methyl-2-[(2-oxo-2H-chromene-3-carbonyl)-amino] butanoate] | 75 to 77 | 
18 | COC(=O)[C@H](CC(C)C)NC(=O)c1cc2ccccc2oc1=O [4f, Methyl 4-methyl-2-[(2-oxo-2H-chromene-3-carbonyl)-amino] pentan-oate] | 95 to 97 | 
19 | COC(=O)CC[C@H](NC(=O)c1cc2ccccc2oc1=O)C(=O)OC [4h, Dimethyl 2-[(2-oxo-2H-chromene-3-carbonyl)-amino] pentanedioate] | 64 to 66 | 
20 | COC(=O)[C@H](CCSC)NC(=O)c1cc2ccccc2oc1=O [4i, Methyl 4-methylsulfanyl-2-[(2-oxo-2H-chromene-3-carbonyl)-amino] butanoate] | 81 to 83 | 
21 | COC(=O)C(NC(=O)c1cc2ccccc2oc1=O)c1ccccc1 (stereo not shown) [4j, Methyl [(2-oxo-2H-chromene-3-carbonyl)-amino]-phenylacetate] | 189 to 192 | 
22 | COC(=O)C(Cc1ccc(O)cc1)NC(=O)c1cc2ccccc2oc1=O (stereo not shown) [4k, Methyl 3-(4-hydroxyphenyl)-2-[(2-oxo-2H-chromene-3-carbonyl)-amino]-propanoate] |  | IC50 [1]: 4.98 µM; cell death [1]: 97.82%; IC50 ([2]; 48 h): 9.44 µM; IC50 ([2]; Homo sapiens, HepG2, 48 h): 9.4 µM; IC50 [3]: 4.1 ± 0.64 µM; IC50 [4]: 23.6 ± 1.19 µM
23 | COC(=O)C(Cc1c[nH]c2ccccc12)NC(=O)c1cc2ccccc2oc1=O (stereo not shown) [4l, Methyl 3-(1H-Indol-3-yl)-2-[(2-oxo-2H-chromene-3-carbonyl)-amino]-propanoate] | 138 to 139 | 
24 | COC(=O)C(CCSC)NC(=O)CCNC(=O)c1cc2ccccc2oc1=O (stereo not shown) [6c, Methyl 4-methylsulfanyl-2-{3-[(2-oxo-2H-chromene-3-carbonyl)-amino]-propionylamino}-butanoate] |  | IC50 [1]: 5.85 µM; cell death [1]: 97.35%; IC50 ([2]; 48 h): 33.8 µM; IC50 ([2]; Homo sapiens, HepG2, 48 h): 33.9 µM; IC50 [3]: 8.6 ± 0.15 µM; IC50 [4]: 34.2 ± 1.06 µM
